According to US5008401A, “Cyanine compounds” (Asahi Chemical Co., Ltd., priority 1990, dated 1991):

Columns and labels:
[1] = Absorption maximum (λmax) and molar absorptivity (ε) in solution; assay type: physicochemical
[2] = Test for solubility in solvent; assay type: physicochemical; settings: for Solubility: methanol, room temperature
Method: Each of cyanine dyes as shown below in Table 2 was dissolved in methanol and the solubility was determined at room temperature with the results indicated below in Table 2.

COCCN1C(=CC=CC=CC2=[N+](CCOC)c3c(C)cc(OC)cc3C2(C)C)C(C)(C)c2cc(OC)cc(C)c21 [Preparation Example 5]
ε ([1]; diacetone alcohol): 185000 cm⁻¹
λmax ([1]; diacetone alcohol): 679 nm

CCOc1cc(OCC)c2c(c1)C(C)(C)C(=CC=CC=CC1=[N+](CC)c3c(OCC)cc(OCC)cc3C1(C)C)N2CC [Preparation Example 2]
ε ([1]; dichloromethane): 1.72×10^5 cm^-
λmax ([1]; dichloromethane): 698 nm

CCc1cc(OC)cc2c1N(CC)C(=CC=CC=CC1=[N+](CC)c3c(CC)cc(OC)cc3C1(C)C)C2(C)C [Preparation Example 9]
ε ([1]; diacetone alcohol): 182000 cm⁻¹
λmax ([1]; diacetone alcohol): 681 nm

COc1cc(C)c2c(c1)C(C)(C)C(=CC=CC=CC1=[N+](CCO)c3c(C)cc(OC)cc3C1(C)C)N2CCO [Preparation Example 4]
ε ([1]; diacetone alcohol): 184000 cm⁻¹
λmax ([1]; diacetone alcohol): 679 nm

CCOc1cc(C)c2c(c1)C(C)(C)C(=CC=CC=CC1=[N+](CC)c3c(C)cc(OCC)cc3C1(C)C)N2CC [Preparation Example 7]
ε ([1]; dichloroethane): 1.75×10^5 cm^-
λmax ([1]; dichloroethane): 681 nm

COCN1C(=CC=CC=CC2=[N+](COC)c3cc(OC)c(OC)cc3C2(C)C)C(C)(C)c2cc(OC)c(OC)cc21 [Preparation Example 3]
Solubility [2]: at least 30 g/1
ε ([1]; diacetone alcohol): 160000 cm⁻¹
λmax ([1]; diacetone alcohol): 702 nm

COc1cc(C(C)C)c2c(c1)C(C)(C)C(=CC=CC=CC1=[N+](C)c3c(C(C)C)cc(OC)cc3C1(C)C)N2C [Preparation Example 10]
ε ([1]; diacetone alcohol): 162000 cm⁻¹
λmax ([1]; diacetone alcohol): 681 nm

CCOc1ccc2c(c1)C(C)(C)C(=CC=CC=CC1=[N+](C)c3ccc(OCC)cc3C1(C)C)N2C [Compound B, reference compound]
solubility in solvents (in words) [2]: not satisfactory in solubility in solvents
Solubility [2]: up to 10 g/1

CCCCN1C(=CC=CC=CC2=[N+](CCCC)c3cc(OC)c(OC)cc3C2(C)C)C(C)(C)c2cc(OC)c(OC)cc21 [Preparation Example 12]
ε ([1]; dichloromethane): 161000 cm⁻¹
λmax ([1]; dichloromethane): 699 nm

CCOc1ccc2c(c1)C(C)(C)C(=CC=CC=CC=CC1=[N+](C)c3ccc(OCC)cc3C1(C)C)N2C [Compound A, reference compound]
solubility in solvents (in words) [2]: does not exhibit good solubility in solvents
Solubility [2]: up to 10 g/1

COCCN1C(=CC=CC=CC2=[N+](CCOC)c3c(OC)cc(OC)cc3C2(C)C)C(C)(C)c2cc(OC)cc(OC)c21 [Preparation Example 14]
Solubility [2]: at least 30 g/1
ε ([1]; diacetone alcohol): 180000 cm⁻¹
λmax ([1]; diacetone alcohol): 695 nm

CCCN1C(=CC=CC=CC2=[N+](CCC)c3cc(C)c(OC)cc3C2(C)C)C(C)(C)c2cc(OC)c(C)cc21 [Preparation Example 6]
Solubility [2]: at least 30 g/1
ε ([1]; diacetone alcohol): 174000 cm⁻¹
λmax ([1]; diacetone alcohol): 683 nm

CCN1C(=CC=CC=CC2=[N+](CC)c3c(OC)cc(OC)cc3C2(C)C)C(C)(C)c2cc(OC)cc(OC)c21 [Preparation Example 1]
Solubility [2]: 30 g/1

COc1cc(OC)c2c(c1)C(C)(C)C(=CC=CC=CC1=[N+](CCOC(C)=O)c3c(OC)cc(OC)cc3C1(C)C)N2CCOC(C)=O [Preparation Example 13]
ε ([1]; diacetone alcohol): 175000 cm⁻¹
λmax ([1]; diacetone alcohol): 693 nm

CCCOc1cc(C)c2c(c1)C(C)(C)C(=CC=CC=CC1=[N+](CC)c3c(C)cc(OCCC)cc3C1(C)C)N2CC [Preparation Example 8]
λmax ([1]; diacetone alcohol): 683 nm

CCCCN1C(=CC=CC=CC2=[N+](CCCC)c3cc(OC)c(OC)cc3C2(C)C)C(C)(C)c2cc(OC)c(OC)cc21 [Preparation Example 11]
Solubility [2]: at least 30 g/1
ε ([1]; diacetone alcohol): 162000 cm⁻¹
λmax ([1]; diacetone alcohol): 703 nm
